Structures can show the parent of a compound that is named as a salt.

HSET full length protein, sequence (Q9BW19 whole entry): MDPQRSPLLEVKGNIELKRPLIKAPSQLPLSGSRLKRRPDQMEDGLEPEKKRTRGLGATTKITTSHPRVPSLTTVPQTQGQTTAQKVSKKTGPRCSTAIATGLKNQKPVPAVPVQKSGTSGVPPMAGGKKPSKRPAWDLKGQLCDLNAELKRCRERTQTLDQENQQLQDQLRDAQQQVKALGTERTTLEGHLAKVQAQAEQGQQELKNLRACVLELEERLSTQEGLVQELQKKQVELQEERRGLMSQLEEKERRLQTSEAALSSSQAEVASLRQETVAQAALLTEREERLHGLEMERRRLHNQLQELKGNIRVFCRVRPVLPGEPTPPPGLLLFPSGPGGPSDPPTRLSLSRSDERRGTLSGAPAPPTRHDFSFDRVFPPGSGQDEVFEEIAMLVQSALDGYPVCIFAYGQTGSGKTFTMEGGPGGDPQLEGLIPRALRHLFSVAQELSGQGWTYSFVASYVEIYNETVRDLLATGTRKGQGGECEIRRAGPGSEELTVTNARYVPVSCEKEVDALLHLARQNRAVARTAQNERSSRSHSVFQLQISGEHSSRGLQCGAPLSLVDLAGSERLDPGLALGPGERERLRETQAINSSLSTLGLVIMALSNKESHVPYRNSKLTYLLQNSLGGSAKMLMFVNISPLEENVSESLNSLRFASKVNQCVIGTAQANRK

The target in the assay is HSET full length protein (Homo sapiens (Human), UniProt Q9BW19). Put plainly: HSET ADP-Glo Assay S - 3 μM ATP. Format: biochemical. Conditions: 5 nM HSET, 70 μg/mL microtubule, 80 min at rt, read-out: COMBINED HSET ADP GLO IC50. In short, it runs like this:
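Full-length human HSET (5 nM) with paclitaxel-stabilised bovine brain microtubules (70 μg/mL) in HEPES pH 6.8 buffer was preincubated 10 min with compound. ATP at 3 μM started the reaction, which ran 80 min at rt. ADP formed was measured by ADP-Glo luminescence.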
In general terms: In ADP-Glo the light output rises with the ADP produced.
For orientation: IC50 means the concentration that gives 50% inhibition. Regarding `Cc1nc(-c2cccc(C(=O)N[C@@H](CC#N)CC(=O)Nc3nc(C)c(C(=O)OC(C)C)s3)c2)no1` [Example 195, Propan-2-yl 2-[(3S)-4-cyano-3-{[3-(5-methyl-1,2,4-oxadiazol-3-yl)phenyl]form-amido}butanamido]-4-methyl-1,3-thiazole-5-carboxylate], the IC50 was 12 nM.

With `Cc1nc(-c2cccc(C(=O)N[C@H](CC#N)CC(=O)Nc3nc(C)c(C(=O)OC(C)C)s3)c2)no1` [Example 196, Propan-2-yl 2-[(3R)-4-cyano-3-{[3-(5-methyl-1,2,4-oxadiazol-3-yl)phenyl]form-amido}butanamido]-4-methyl-1,3-thiazole-5-carboxylate], the IC50 came out at 167 nM.

Turning to `COC(=O)c1sc(NC(=O)C[C@H](CC#N)NC(=O)c2cccc(-c3noc(C)n3)c2)nc1C` [Example 197, Methyl 2-[(3S)-4-cyano-3-{[3-(5-methyl-1,2,4-oxadiazol-3-yl)phenyl]formamido}, butanamido]-4-methyl-1,3-thiazole-5-carboxylate], the IC50 worked out at 135 nM.

In the case of `COC(=O)c1sc(NC(=O)C[C@@H](CC#N)NC(=O)c2cccc(-c3noc(C)n3)c2)nc1C` [Example 198], the IC50 was 181 nM.

`Cc1nc(-c2cccc(C(=O)N[C@@H](CC#N)CC(=O)N(C)c3nc(C)c(C(=O)OC(C)C)s3)c2)no1` [Example 199, Propan-2-yl 2-[(3S)-4-cyano-N-methyl-3-{[3-(5-methyl-1,2,4-oxadiazol-3-yl)phenyl]-formamido}butanamido]-4-methyl-1,3-thiazole-5-carboxylate]: the 50% inhibitory concentration (IC50) is 10 nM.

On to `Cc1nc(-c2cccc(C(=O)N[C@H](CC#N)CC(=O)N(C)c3nc(C)c(C(=O)OC(C)C)s3)c2)no1` [Example 200, Propan-2-yl 2-[(3R)-4-cyano-N-methyl-3-{[3-(5-methyl-1,2,4-oxadiazol-3-yl)phenyl]-formamido}butanamido]-4-methyl-1,3-thiazole-5-carboxylate], for which the IC50 came out at 295 nM.

Turning to `Cc1nc(NC(=O)C[C@H](CC#N)NC(=O)c2cccc(-c3cnn(C)c3)c2)sc1C(=O)OC(C)(C)C` [Example 201], the half-maximal inhibitory concentration (IC50) was 410 nM.

Regarding `Cc1nc(NC(=O)C[C@@H](CC#N)NC(=O)c2cccc(-c3cnn(C)c3)c2)sc1C(=O)OC(C)(C)C` [Example 202], the IC50 was found to be 8850 nM.

Take `Cc1nc(NC(=O)C[C@H](CC#N)NC(=O)c2cccc(-c3cnn(C)c3)c2)sc1C(=O)OC(C)C` [Example 203]: the IC50 was found to be 1100 nM.

Take `Cc1nc(NC(=O)C[C@@H](CC#N)NC(=O)c2cccc(-c3cnn(C)c3)c2)sc1C(=O)OC(C)C` [Example 204]: the IC50 amounted to 5700 nM.

As for `Cc1nc(N(C)C(=O)C[C@H](CC#N)NC(=O)c2cccc(-c3cnn(C)c3)c2)sc1C(=O)OC(C)C` [Example 205], the IC50 stood at 4400 nM.

Consider `Cc1nc(N(C)C(=O)C[C@@H](CC#N)NC(=O)c2cccc(-c3cnn(C)c3)c2)sc1C(=O)OC(C)C` [Example 206], for which the concentration for half-maximal inhibition (IC50) worked out at 9300 nM.

In the case of `Cc1nc(NC(=O)C[C@H](CC#N)NC(=O)c2cccc(C#N)c2)sc1C(=O)OC(C)C` [Example 207, Propan-2-yl 2-[(3S)-4-cyano-3-[(3-cyanophenyl)formamido]butan-amido]-4-methyl-1,3-thiazole-5-carboxylate], the IC50 is 590 nM.

Take `Cc1nc(NC(=O)C[C@H](CC#N)Nc2nccc3ccc(C#N)cc23)sc1C(=O)OC(C)C` [Example 208, Propan-2-yl 2-[(3S)-4-cyano-3-[(7-cyanoisoquinolin-1-yl)amino]butan-amido]-4-methyl-1,3-thiazole-5-carboxylate]: the IC50 is 79 nM.

With `Cc1nc(NC(=O)C[C@@H](CC#N)Nc2nccc3ccc(C#N)cc23)sc1C(=O)OC(C)C` [Example 209, Propan-2-yl 2-[(3R)-4-cyano-3-[(7-cyanoisoquinolin-1-yl)amino]butan-amido]-4-methyl-1,3-thiazole-5-carboxylate], the IC50 worked out at 4000 nM.

For `Cc1nc(NC(=O)C[C@H](CC#N)Nc2nccc3ccc(-c4cnn(C)c4)cc23)sc1C(=O)OC(C)C` [Example 210, Propan-2-yl 2-[(3S)-4-cyano-3-{[7-(1-methyl-1 H-pyrazol-4-yl)isoquinolin-1-yl]amino}butanamido]-4-methyl-1,3-thiazole-5-carboxylate], the IC50 is 700 nM.

Take `Cc1nc(NC(=O)C[C@H](CC#N)NC(=O)c2cccc(-c3cnn(C)c3)n2)sc1C(=O)OC(C)(C)C` [Example 211, tert-Butyl 2-[(3S)-4-cyano-3-{[6-(1-methyl-1 H-pyrazol-4-yl)pyridin-2-yl]formamido}butanamido]-4-methyl-1,3-thiazole-5-carboxylate]: the IC50 was found to be 1300 nM.

For `Cc1nc(NC(=O)C[C@@H](CC#N)NC(=O)c2cccc(-c3cnn(C)c3)n2)sc1C(=O)OC(C)(C)C` [Example 212, tert-Butyl 2-[(3R)-4-cyano-3-{[6-(1-methyl-1 H-pyrazol-4-yl)pyridin-2-yl]formamido}butanamido]-4-methyl-1,3-thiazole-5-carboxylate], the IC50 is 3350 nM.

Consider `Cc1nc(NC(=O)C[C@H](CC#N)NC(=O)c2cccc(-c3cnn(C)c3)n2)sc1C(=O)OC(C)C` [Example 213, Propan-2-yl 2-[(3S)-4-cyano-3-{[6-(1-methyl-1 H-pyrazol-4-yl)pyridin-2-yl]formamido}butanamido]-4-methyl-1,3-thiazole-5-carboxylate], for which the IC50 was 1700 nM.

For `Cc1nc(NC(=O)C[C@@H](CC#N)NC(=O)c2cccc(-c3cnn(C)c3)n2)sc1C(=O)OC(C)C` [Example 214], the IC50 worked out at 2400 nM.

As to `CCOC(=O)c1sc(NC(=O)CC(CC)NC(=O)c2cccc(-c3noc(C)n3)c2)nc1C` (stereo not drawn) [Example 215], the IC50 is 84 nM.

With `COC(=O)c1sc(NC(=O)C[C@H](CC(=O)O)NC(=O)c2cccc(-c3noc(C)n3)c2)nc1C` [Example 216, (3R)-4-{[5-(methoxycarbonyl)-4-methyl-1,3-thiazol-2-yl]carbamoyl}-3-{[3-(5-methyl-1,2,4-oxadiazol-3-yl)phenyl]formamido}butanoic acid], the IC50 turned out to be 1700 nM.

Turning to `COC(=O)c1sc(N(C)C(=O)C[C@@H](CC(=O)O)NC(=O)c2cccc(-c3noc(C)n3)c2)nc1C` [Example 217], the IC50 came to 7300 nM.

With `CCN(c1nc(C)c(C(=O)OC(C)(C)C)s1)C(=O)[C@H]1C[C@@H](Nc2nccc3ccc(-c4noc(C)n4)cc23)C1` [Example 218, tert-Butyl 2-((1s,3s)-N-ethyl-3-((7-(5-methyl-1,2,4-oxadiazol-3-yl)isoquinolin-1-yl)amino)cyclobutanecarboxamido)-4-methylthiazole-5-carboxylate formate], the IC50 amounted to 41 nM.

Turning to `CCOC(=O)c1sc(N(C)C(=O)CCNC(=O)c2cccc(-c3noc(C)n3)c2)nc1C` [Example 219, Ethyl 4-methyl-2-(N-methyl-3-(3-(5-methyl-1,2,4-oxadiazol-3-yl)benzamido)propanamido)thiazole-5-carboxylate], the half-inhibitory concentration (IC50) is 89 nM.

For the compound `CCCOC(=O)c1sc(C(=O)N[C@H]2C[C@@H](Nc3nccc4ccc(-c5noc(C)n5)cc34)C2)nc1C` [Example 220, Propyl 4-methyl-2-(((1s,3s)-3-((7-(5-methyl-1,2,4-oxadiazol-3-yl)isoquinolin-1-yl)amino)cyclobutyl)carbamoyl)thiazole-5-carboxylate], the half-inhibitory concentration (IC50) turned out to be 122 nM.

Take `Cc1nc(-c2ccc3ccnc(N[C@H]4C[C@@](O)(C(=O)Nc5nc(C)c(C(C)(C)C)s5)C4)c3c2)no1` [Example 221, (1 r,3r)-N-(5-(tert-butyl)-4-methylthiazol-2-yl)-1-hydroxy-3-((7-(5-methyl-1,2,4-oxadiazol-3-yl)isoquinolin-1-yl)amino)cyclobutane-1-carboxamide]: the IC50 turned out to be 133 nM.

On to `Cc1nc(-c2ccc3ccnc(N[C@H]4C[C@@](F)(C(=O)Nc5nc(C)c(C(=O)OC(C)(C)C)s5)C4)c3c2)no1` [Example 222, tert-butyl 2-((1 r,3r)-1-fluoro-3-((7-(5-methyl-1,2,4-oxadiazol-3-yl)isoquinolin-1-yl)amino)cyclobutane-1-carboxamido)-4-methylthiazole-5-carboxylate], for which the IC50 came to 10 nM.

On to `Cc1nc(-c2ccc3ccnc(N[C@H]4C[C@](F)(C(=O)Nc5nc(C)c(C(=O)OC(C)(C)C)s5)C4)c3c2)no1` [Example 223, tert-Butyl 2-((1s,3s)-1-fluoro-3-((7-(5-methyl-1,2,4-oxadiazol-3-yl)isoquinolin-1-yl)amino)cyclobutane-1-carboxamido)-4-methylthiazole-5-carboxylate], for which the 50% inhibitory concentration (IC50) was 219 nM.

Regarding `Cc1nc(-c2ccc3ccnc(N[C@H]4C[C@@](C)(C(=O)Nc5nc(C)c(C(=O)OC(C)(C)C)s5)C4)c3c2)no1` [Example 224, tert-Butyl 4-methyl-2-((1s,3s)-1-methyl-3-((7-(5-methyl-1,2,4-oxadiazol-3-yl)isoquinolin-1-yl)amino)cyclobutane-1-carboxamido)thiazole-5-carboxylate], the 50% inhibitory concentration (IC50) was 270 nM.

Take `Cc1nc(-c2ccc3ccnc(N[C@@H]4CCN(C(=O)Nc5nc(C)c(C(=O)OC(C)(C)C)s5)C4)c3c2)no1` [Example 225, tert-Butyl 4-methyl-2-[[(3R)-3-[[7-(5-methyl-1,2,4-oxadiazol-3-yl)-1-isoquinolyl]amino]pyrrolidine-1-carbonyl]amino]thiazole-5-carboxylate]: the IC50 is 1660 nM.

Consider `Cc1nc(-c2ccc3ccnc(N[C@H]4CCN(C(=O)Nc5nc(C)c(C(=O)OC(C)(C)C)s5)C4)c3c2)no1` [Example 226, tert-Butyl 4-methyl-2-[[(3S)-3-[[7-(5-methyl-1,2,4-oxadiazol-3-yl)-1-isoquinolyl]amino]pyrrolidine-1-carbonyl]amino]thiazole-5-carboxylate], for which the half-inhibitory concentration (IC50) came to 12 nM.

Take `Cc1nc(-c2ccc3ccnc(N[C@H]4CCN(C(=O)N(C)c5nc(C)c(C(=O)OC(C)(C)C)s5)C4)c3c2)no1` [Example 227, tert-Butyl 4-methyl-2-[methyl-[(3S)-3-[[7-(5-methyl-1,2,4-oxadiazol-3-yl)-1-isoquinolyl]amino]pyrrolidine-1-carbonyl]amino]thiazole-5-carboxylate]: the IC50 worked out at 88 nM.

The values above are taken from patent US20250084074A1, “SUBSTITUTED HETEROCYCLES AS HSET INHIBITORS” (MERCK PATENT GMBH, priority 2022, published 2025).
